The results in this text go back to US20260216344A1, “ALC1 Inhibitors and Synergy with PARPi” (Eisbach Bio GmbH, priority 2020, published 2026).

The subject of this test is PARP2. The test is described as follows: live-cell PARP-2 trapping assay (GFP-PARP2 at laser micro-irradiation sites). The test is classed as cell-based, human. The conditions noted are these: U2OS cells transfected with GFP-PARP2; veliparib 10 μM, talazoparib 100 nM; images 1 and 15 minutes after irradiation. On the procedure:
U2OS cells were seeded onto 4-well Nunc Lab-Tek chambers (Thermo Fisher Scientific) in normal DMEM. Cells were cultured over night at 37° C. and transfected with a GFP-tagged PARP2 plasmid using Lipofectamine. 24 h after transfection, the cells were imaged using the Zeiss AxioObserver Z1 confocal spinning-disk microscope equipped with a sCMOS ORCA Flash 4.0 camera (Hamamatsu). Live-cell imaging experiments were performed with C-Apo 63× water immersion objective lens. During this time, the cells were maintained in Leibovitz's L-15 media (Gibco), supplemented with 10% FBS, at 37° C. in the absence of CO2. […] DNA damage was induced along a line of 88 pixels that is exposed for 400 msec with 20% laser power of a 355 nm laser operated through a single-point scanning head (UGA-42 firefly, Rapp OptoElectronics).
The accumulation of fluorophore-tagged proteins at laser micro-irradiation sites was followed for 15-30 minutes. […] The accumulation of fluorophore-tagged proteins at micro-irradiation sites was quantified using a custom-made macro in Fiji/ImageJ. The damage region of interest was selected, the mean fluorescent intensity of the nucleus was determined, and the background signal was subtracted. The recruitment was calculated via the following formula: (damage region (t)−background signal (t))/(nucleus intensity (t)−background (t))

Each structure is given as a SMILES string. Entries after “also recorded” stand apart in the source; their conditions may differ.

Take `Cn1ncnc1[C@H]1c2n[nH]c(=O)c3cc(F)cc(c23)N[C@@H]1c1ccc(F)cc1` [talazoparib]: the “recruitment / retention of GFP-PARP2 at laser micro-irradiation damage sites” value is “enhanced retention of GFP-tagged PARP2 at induced DNA lesions; also recorded: enhanced retention of PARP2 at induced damage sites”.

Take `C[C@]1(c2nc3c(C(N)=O)cccc3[nH]2)CCCN1` [veliparib]: the “recruitment / retention of GFP-PARP2 at laser micro-irradiation damage sites” value is reported as “overall less PARP2 recruitment to the DNA lesions; also recorded: less recruitment of PARP2 to the damage site”.
